The values that follow come from patent publication US8859465B2, “Synergistic herbicidal composition containing penoxsulam and glufosinate-ammonium” (Dow AgroSciences LLC, priority 2011, dated 2014).

Assay type in all cases: in vivo
For assay [1], the system named is Japanese bulrush (Schoenoplectus juncoides, SCPJU). The assay is described as follows: Postemergence herbicidal activity of mixtures under field conditions in wet-seeded rice, SCPJU. Here is the method: (§1) Evaluation of Postemergence Herbicidal Activity of Mixtures under Field Conditions Methodology
(§2) Field trials were conducted in rice using standard herbicide small plot research methodology. Plot size was 2 square meters (m^2) using 1.6 meter (m) diameter rings placed into the rice paddy soil with capability for flooding to maintain good rice cultural practices and rice growing conditions. There were 3 replicates per treatment. Rice was Japonica type that was sown as wet-seeded rice (pre-germinated) into the saturated soil in the rings as per normal cultural practices. The rice crop was grown using normal cultural practices for fertilization, seeding, watering, flooding and maintenance to ensure good growth of the crop and the weeds under seeded rice conditions in Taiwan. Ring plot water conditions were maintained under saturated soil conditions after planting. Just prior to treatment application, any remaining plot water was drained to maintain saturated soil in ring plot. Treatments were applied by backpack using compressed air at 30 pounds per square inch (psi) using Flat Fan nozzles at a spray volume of 450 Liters/hectare (L/ha). Penoxsulam was applied as the Fencer® 25OD formulation. Glufosinate-ammonium was applied as the Basta® 135 SL formulation.
(§3) All treatments in the field trials were applied by spraying the treatments on the rice and weeds and evaluated at 7, 14, or 28 days after application (DAA). Commercially available products of penoxsulam (FENCER 25OD) and glufosinate-ammonium (BASTA 135 SL) were mixed in water and sprayed onto the rice and weeds with the appropriate formulated product amounts to treat 2 m^2 to achieve the desired application rates based on unit area of application (hectare).
(§4) The treated and control plots were rated blind at various intervals after application, with the last evaluation taken 28 days after application. Ratings were based on percent (%) visual weed control, where 0 corresponds to no control and 100 corresponds to complete control.
(§5) Colby's equation was used to determine the herbicidal effects expected from the mixtures (Colby, S. R. Calculation of the synergistic and antagonistic response of herbicide combinations. Weeds 1967 15, 20-22). Results are shown where P<0.05 according to Colby's method of analysis.
(§6) The following equation was used to calculate the expected activity of mixtures containing two active ingredients, A and B: Expected=A+B−(A×B/100)
(§7) A=observed efficacy of active ingredient A at the same concentration as used in the mixture;
(§8) B=observed efficacy of active ingredient B at the same concentration as used in the mixture.

Assay [2] relates to monochoria (Monochoria vaginalis, MOOVA). The assay is described as follows: Postemergence herbicidal activity of mixtures under field conditions in wet-seeded rice, MOOVA. The following applies: 14 DAA. How it is done: as §1, §2, §3
The treated and control plots were rated blind at various intervals after application, with the last evaluation taken 28 days after application. Ratings were based on percent (%) visual weed control, where 0 corresponds to no control and 100 corresponds to complete control. […]

In assay [3] the test system is smallflower umbrella sedge (Cyperus difformis, CYPDI). As to the kind of experiment: Postemergence herbicidal activity of mixtures under field conditions in wet-seeded rice, CYPDI. The following applies: 14 DAA. Here is the method:
as §1, §2, §3, §4, §5, §6, §7, §8

Assay [4] has as its system barnyardgrass (Echinochloa crus-galli, ECHCG). The assay is described as follows: Postemergence herbicidal activity of mixtures under field conditions in wet-seeded rice, ECHCG. Here is the method: as §1, §2, §3, §4, §5, §6, §7, §8
Where [5] appears, read: 28 DAA, glufosinate-ammonium 35 grams ai/ha.
[6] abbreviates: 28 DAA, glufosinate-ammonium 70 grams ai/ha.
The mark [7] stands for this setting: 28 DAA, glufosinate-ammonium 140 grams ai/ha.
The mark [8] stands for this setting: glufosinate-ammonium 70 grams ai/ha.
[9] abbreviates: 28 DAA, penoxsulam 5 grams ai/ha.

For the compound “2-amino-4-(hydroxymethylphosphinyl)butanoic acid [Glufosinate-ammonium]”, the “SCPJU (% Control) Obs” value in assay [1] (7 DAA, glufosinate-ammonium 18 grams ai/ha) is recorded as 0%; in assay [1] (7 DAA, glufosinate-ammonium 35 grams ai/ha), 0%; in assay [1] (7 DAA, glufosinate-ammonium 70 grams ai/ha), 0%; in assay [1] (7 DAA, glufosinate-ammonium 140 grams ai/ha) it was 0%; in assay [1] (28 DAA, glufosinate-ammonium 18 grams ai/ha) it was 0%; in assay [1] (setting [5]), 0%. Moreover, the “SCPJU (% Control) Obs” value in assay [1] (setting [6]) and in assay [1] (setting [7]) was 0% each time. Further, the “MOOVA (% Control) Obs” value in assay [2] (glufosinate-ammonium 18 grams ai/ha) and in assay [2] (setting [8]) was 0% each time. For the same compound, the “CYPDI (% Control) Obs” value in assay [3] (glufosinate-ammonium 35 grams ai/ha), in assay [3] (setting [8]) and in assay [3] (glufosinate-ammonium 140 grams ai/ha) was 0% in each case. The “ECHCG (% Control) Obs” value in assay [4] (14 DAA, glufosinate-ammonium 35 grams ai/ha) is given as 0%; in assay [4] (14 DAA, glufosinate-ammonium 70 grams ai/ha) it was 0%; in assay [4] (14 DAA, glufosinate-ammonium 140 grams ai/ha), 27%; in assay [4] (setting [5]), 0%; in assay [4] (setting [6]), 0%; in assay [4] (setting [7]), 0%. Also, the “ECHCG (% Control) Obs” value in assay [4] (28 DAA, glufosinate-ammonium 280 grams ai/ha) is given as 13%.

As for `COc1cnc(OC)n2nc(NS(=O)(=O)c3c(OCC(F)F)cccc3C(F)(F)F)nc12` [Penoxsulam, 2-(2,2-difluoroethoxy)-N-(5,8-dimethoxy-[1,2,4]triazolo[1,5-c]pyrimidin-2-yl)-6-(trifluoromethyl)benzenesulfonamide], the “SCPJU (% Control) Obs” value in assay [1] (7 DAA, penoxsulam 5 grams ai/ha) is recorded as 40%; in assay [1] (7 DAA, penoxsulam 20 grams ai/ha), 92%; in assay [1] (setting [9]), 0%. Besides, the “MOOVA (% Control) Obs” value in assay [2] (penoxsulam 5 grams ai/ha) is on record as 37%. For the same compound, the “CYPDI (% Control) Obs” value in assay [3] (penoxsulam 5 grams ai/ha) stood at 73%. Also, the “ECHCG (% Control) Obs” value amounted to 53% in assay [4] (14 DAA, penoxsulam 5 grams ai/ha); 62% in assay [4] (14 DAA, penoxsulam 10 grams ai/ha); 30% in assay [4] (setting [9]); 42% in assay [4] (28 DAA, penoxsulam 10 grams ai/ha); 87% in assay [4] (28 DAA, penoxsulam 20 grams ai/ha).
